Laboratory results taken from PMC13195669, “GPR3 Ligands Discovered through Combined Virtual and Conformational Biosensor-Based Screening” (Journal of the American Chemical Society, 2026).

Experiments:
Type in all cases: cell-based
[1] = molecular target: T1, LPA receptor 1 (LPAR1) (Homo sapiens, UniProt Q92633); experiment: cAMP GloSensor 22F, agonist-stimulated LPAR1; conditions: preincubation with 100 μM or 10 μM; 10 µM forskolin
T1 construct: expressed in transfected cells; host or cells: HEK293A, transient
Description: (§1) Next, we used the classical cAMP GloSensor technology to assess the target selectivity profile of 33. […] In addition, we tested the effects of 33 on cAMP changes mediated by agonist-stimulated GPCRs phylogenetically close to GPR3 and coupling to Gs or Gi/o proteins.
(§2) BRET-based GPCR conformational sensor experiments
(§3) Cells expressing the conformational GPCR biosensors were grown for 24 h (stable cells) or 48 h (transiently transfected cells) in white 96-well plates and washed with 100 µl of HBSS. After washing, cells were incubated for 2 minutes with a 1/1000 solution of the furimazine stock solution (Promega; cat. no. N1662). Three baseline BRET reads were recorded and averaged prior to the addition of serial dilutions of ligands or veh icle control and subsequent BRET reads. […] BRE T donor emission was quantified with a 470/80 nm monochromator. […] Experiments were carried out using a CLARIOstar plate reader.
(§4) FRET- and BRET-based measurements of cAMP levels and Gs dissociation/reassociation Transfected cells grown in black 96-well plates were washed twice with 100 µl of HBSS 48 h after transfection and incubated with HBSS. […] Three baseline FRET/BRET reads were recorded and averaged prior to the addition of serial dilutions of ligands or vehicle control and sub-sequent FRET/BRET reads. […] FRET donor emission was quantified with a 480/10 nm filter. […]
(§5) Luminescence measurement using the cAMP GloSensor™ 22F […]

[2] = molecular target: T2, GPR3 T3.37A mutant (Homo sapiens, UniProt P46089, T121A); experiment: GPR3 conformational biosensor with T3.37A point mutation; conditions: wildtype vs mutant biosensor; transiently transfected HEK293A
T2 construct: ligated to the full-length C-terminus; expressed in transfected cells; host or cells: HEK293A, transient
Excerpt: To develop a hypothesis for the cause of the significant loss in efficacy from VH1 to 33, we computationally predicted the binding poses of both molecules in GPR3 (Figure a). […] In contrast, the cyclopropyl ring of 33 is still buried in the receptor’s transmembrane core. […] We also challenged this binding model of 33 with another GPR3 biosensor variant which harbors the T^3.37A point mutation in transmembrane helix 3. According to an alternative predicted pose of 33 obtained with Boltz-2 (c.f., SI – Materials and Methods section), this mutation should hamper 33 binding to GPR3.
as §2
as §3, with “After washing, cells were incubated for 2 minutes with a 1/1000 solution of the furimazine stock solution (Promega; cat. no. N1662).” left out
FRET- and BRET-based measurements of cAMP levels and Gs dissociation/reassociation Transfected cells grown in black 96-well plates were washed twice with 100 µl of HBSS 48 h after transfection and incubated with HBSS. […] FRET donor emission was quantified with a 480/10 nm filter. […]

[3] = molecular target: T3, adenosine A2B receptor (A2BR) (Homo sapiens, UniProt P29275); experiment: cAMP GloSensor 22F, agonist-stimulated A2BR; conditions: preincubation with 100 μM or 10 μM
T3 construct: expressed in transfected cells; host or cells: HEK293A, transient
T3 sequence (P29275 1-332): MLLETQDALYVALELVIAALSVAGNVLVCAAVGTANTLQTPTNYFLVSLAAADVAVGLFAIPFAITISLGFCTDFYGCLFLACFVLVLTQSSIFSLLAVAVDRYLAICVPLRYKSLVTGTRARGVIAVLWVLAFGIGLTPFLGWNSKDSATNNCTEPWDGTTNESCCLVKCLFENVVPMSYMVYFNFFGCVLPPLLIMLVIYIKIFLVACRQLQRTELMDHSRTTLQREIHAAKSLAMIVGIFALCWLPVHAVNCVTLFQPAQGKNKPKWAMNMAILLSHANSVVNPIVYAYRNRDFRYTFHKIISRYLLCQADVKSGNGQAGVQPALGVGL
Description: as §1, §2, §3, §4, §5

T1 sequence (Q92633 whole entry, species assumed): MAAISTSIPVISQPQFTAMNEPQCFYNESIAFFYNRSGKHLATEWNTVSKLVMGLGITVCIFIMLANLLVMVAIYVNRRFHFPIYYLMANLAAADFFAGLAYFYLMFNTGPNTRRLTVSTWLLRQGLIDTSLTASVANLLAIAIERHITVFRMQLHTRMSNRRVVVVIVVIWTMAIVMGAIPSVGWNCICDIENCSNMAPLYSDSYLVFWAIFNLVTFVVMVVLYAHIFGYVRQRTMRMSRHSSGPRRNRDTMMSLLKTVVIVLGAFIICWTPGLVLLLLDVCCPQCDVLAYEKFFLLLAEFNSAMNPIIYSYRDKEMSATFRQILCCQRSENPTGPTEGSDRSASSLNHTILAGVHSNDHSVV
T2 sequence (P46089 2-330 T121A limits assumed): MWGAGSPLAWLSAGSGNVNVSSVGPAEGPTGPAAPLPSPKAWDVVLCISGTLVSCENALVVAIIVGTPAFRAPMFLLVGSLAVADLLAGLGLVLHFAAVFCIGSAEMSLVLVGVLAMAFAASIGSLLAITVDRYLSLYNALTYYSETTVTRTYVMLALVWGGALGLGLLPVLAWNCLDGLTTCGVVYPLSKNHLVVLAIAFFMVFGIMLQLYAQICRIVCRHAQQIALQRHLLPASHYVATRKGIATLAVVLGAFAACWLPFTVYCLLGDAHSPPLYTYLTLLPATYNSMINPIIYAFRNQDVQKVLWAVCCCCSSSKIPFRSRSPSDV

effect of T3.37A mutation on activity [2]: no such effect on 33 activity
SMILES: N=c1n(Cc2ccccc2)c2ccccc2n1CC1CC1 [compound 33]
effect on agonist-induced cAMP change mediated by LPAR1 [1]: neither 100 μM nor 10 μM 33 significantly altered
effect on agonist-induced cAMP change mediated by A2BR [3]: neither 100 μM nor 10 μM 33 significantly altered
